This is an account of results in article PMC10998383, “Nitrophenylpiperazine derivatives as novel tyrosinase inhibitors: design, synthesis, and in silico evaluations” (BMC Chemistry, 2024).

By inhibition is commonly meant the change of the read-out against control, counted positive when it falls. The IC50 is the concentration needed to halve the response being measured. The term melting point denotes the temperature, or range, at which the solid turns liquid. A word on the Vmax: it is the rate approached at saturating substrate. Broadly, the % inhibition is the drop in the measured response relative to a control, in per cent.

“Also recorded” adds a separate entry of the source. Where two headings read alike, the source gives them in different places. Bounds are passed on as bounds.

For data set [1], the target named is T1, mushroom tyrosinase (Agaricus bisporus, UniProt C7FF04). The data set is described as follows: Mushroom tyrosinase inhibitory assay with L-dopa as substrate.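 On all read-outs here: enzyme activity followed as absorbance change at 475 nm in phosphate buffer pH 6.8, monitored continuously, IC50 derived from percent inhibition dose–response curves.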 The format is biochemical. To be noted: for inhibition at 100 µM: read-out: % Inhibition at 100 μM.
T1 sequence (C7FF04 1-392): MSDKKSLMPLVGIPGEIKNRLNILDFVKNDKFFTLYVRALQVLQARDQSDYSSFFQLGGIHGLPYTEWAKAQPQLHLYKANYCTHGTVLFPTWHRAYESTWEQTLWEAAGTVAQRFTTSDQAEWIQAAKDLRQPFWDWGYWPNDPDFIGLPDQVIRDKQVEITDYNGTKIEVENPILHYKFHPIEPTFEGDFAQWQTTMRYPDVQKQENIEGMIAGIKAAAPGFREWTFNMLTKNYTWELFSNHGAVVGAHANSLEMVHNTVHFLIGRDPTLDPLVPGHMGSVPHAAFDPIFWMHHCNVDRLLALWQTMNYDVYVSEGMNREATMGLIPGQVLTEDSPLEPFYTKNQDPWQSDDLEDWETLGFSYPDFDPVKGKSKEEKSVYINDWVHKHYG
Method: The mushroom tyrosinase activity assays for the synthetic compounds were conducted using a modified procedure from a previous study. In summary, a 96-well microplate was utilized, and 160 μl of phosphate buffer (50 mM, pH 6.8), 10 μl of mushroom tyrosinase (500 U/ml, dissolved in PBS), and 10 μl of the test compound (dissolved in DMSO) were added to each well. Then, 20 μl of L-dopa (7 mM, dissolved in PBS) was added to initiate the enzymatic reaction. The change in absorbance at 475 nm was continuously monitored using a spectrophotometer. […] The IC50 value, representing the compound’s inhibitory potency, was determined from dose–response curves of percentage inhibition.
The target in data set [2] is T1, mushroom tyrosinase. The data set is described as follows: Determination of the inhibition type (Lineweaver–Burk plot analysis).
For data set [3], the target named is T1, mushroom tyrosinase. To be noted: cited from earlier work.
For another data set, the system named is B16F10 cells. The arrangement: method as in PMID 30856375. To be noted: cited from earlier work.
[4] abbreviates: L-dopa substrate, ± SD, read-out: IC50 ± SD.

In turn, `O=C(OCCN1CCN(c2ccc([N+](=O)[O-])cc2)CC1)c1ccc([N+](=O)[O-])cc1` [Compound 4d, 2-(4-(4-Nitrophenyl)piperazin-1-yl)ethyl 4-nitrobenzoate] had a melting point of 172 to 174 °C. Further, on mushroom tyrosinase [1] (100 μM, L-dopa substrate, ± SD), the inhibition at 100 µM was determined as 28.3 ± 2.89%. Besides, the IC50 at mushroom tyrosinase [1] (setting [4]) was found to be 203.2 ± 1.16 µM.
Consider `O=C(OCCN1CCN(c2ccc([N+](=O)[O-])cc2)CC1)c1ccccc1Br` [Compound 4b, 2-(4-(4-Nitrophenyl)piperazin-1-yl)ethyl 2-bromobenzoate], for which the melting point lay in the range of 185 to 187 °C. Further, the IC50 against mushroom tyrosinase [1] was above 200 µM. Also, the inhibition at 100 µM on mushroom tyrosinase [1] (100 μM, L-dopa substrate, ± SD) was found to be 20.6 ± 2.58%.
`O=C(Cc1ccccc1)OCCN1CCN(c2ccc([N+](=O)[O-])cc2)CC1` [Compound 4i, 2-(4-(4-Nitrophenyl)piperazin-1-yl)ethyl 2-phenylacetate] yielded a melting point of 178 to 180 °C. Also, at mushroom tyrosinase [1], the IC50 was found to be 184.2 ± 0.88 µM and the inhibition at 100 µM is 39.4 ± 4.18%.
`O=C(OCCN1CCN(c2ccc([N+](=O)[O-])cc2)CC1)c1ccc(Cl)cc1Cl` [Compound 4c, 2-(4-(4-Nitrophenyl)piperazin-1-yl)ethyl 2,4-dichlorobenzoate]: the melting point is 196 to 198 °C. The same compound came in with an IC50 on mushroom tyrosinase [1] above 200 µM. Further, at mushroom tyrosinase [1] (100 μM, L-dopa substrate, ± SD), the inhibition at 100 µM is 27.9 ± 3.09%.
The like results for `COc1ccc(CC(=O)OCCN2CCN(c3ccc([N+](=O)[O-])cc3)CC2)cc1` [Compound 4g, 2-(4-(4-Nitrophenyl)piperazin-1-yl)ethyl 2-(4-methoxyphenyl)acetate] were, in that order, 207 to 209 °C, above 200 µM and 30 ± 4.04%.
In turn, `O=C(OCCN1CCN(c2ccc([N+](=O)[O-])cc2)CC1)c1cc2ccccc2[nH]1` [Compound 4l, 2-(4-(4-Nitrophenyl)piperazin-1-yl)ethyl 1H-indole-2-carboxylate] registered a melting point of 192 to 194 °C. Also, at mushroom tyrosinase [2] (Lineweaver–Burk plot, L-dopa substrate), the Inhibition mode result is “mixed inhibitor; also recorded: mixed-type inhibition”. The Vmax at mushroom tyrosinase [2] (inhibitor concentration 10 µM) was determined as 65.79 mM/min. Besides, at mushroom tyrosinase [2] (inhibitor concentration 40 µM), the Vmax was 64.10 mM/min. At mushroom tyrosinase [2] (inhibitor concentration 100 µM), the Vmax amounted to 62.89 mM/min. Besides, the IC50 on mushroom tyrosinase [1] worked out at 72.55 ± 0.49 µM. Besides, the inhibition at 100 µM at mushroom tyrosinase [1] (100 μM, L-dopa substrate, ± SD) came to 66.6 ± 4.12%.
For `CN1CCN(C(=O)/C=C/c2ccc(O)cc2O)CC1` [C], the “% inhibition” value at mushroom tyrosinase [3] (at 25 μM) is recorded as 94.39%. In the data set with B16F10 cells, the Cellular tyrosinase activity entry is “dose-dependently inhibited” and the Melanin content result is listed as “dose-dependently inhibited”.
As for `O=C(c1ccccc1C(F)(F)F)N1CCN(Cc2ccc(F)cc2)CC1` [E], at mushroom tyrosinase [3], the IC50 was 0.48 ± 0.05 µM.
For the compound `COc1ccc(C=O)c(C(=O)OCCN2CCN(c3ccc([N+](=O)[O-])cc3)CC2)c1OC` [Compound 4h, 2-(4-(4-Nitrophenyl)piperazin-1-yl)ethyl 6-formyl-2,3-dimethoxybenzoate], the melting point fell in the range of 176 to 178 °C. Moreover, on mushroom tyrosinase [1], the IC50 is 200.9 ± 1.32 µM. Moreover, the inhibition at 100 µM at mushroom tyrosinase [1] (100 μM, L-dopa substrate, ± SD) stood at 26.9 ± 3.55%.
As for `O=C(OCCN1CCN(c2ccc([N+](=O)[O-])cc2)CC1)c1ccc([N+](=O)[O-])o1` [Compound 4m, 2-(4-(4-Nitrophenyl)piperazin-1-yl)ethyl 5-nitrofuran-2-carboxylate], the inhibition at 100 µM on mushroom tyrosinase [1] (100 μM, L-dopa substrate, ± SD) turned out to be 43.7 ± 3.18%. Besides, the IC50 at mushroom tyrosinase [1] (setting [4]) worked out at 175.3 ± 0.24 µM.
Take `O=C(C=Cc1ccccc1)OCCN1CCN(c2ccc([N+](=O)[O-])cc2)CC1` [Compound 4j, 2-(4-(4-Nitrophenyl)piperazin-1-yl)ethyl cinnamate]: the melting point lay within 185 to 187 °C. The IC50 on mushroom tyrosinase [1] was above 200 µM. On mushroom tyrosinase [1] (100 μM, L-dopa substrate, ± SD), the inhibition at 100 µM is 23.1 ± 3.6%.
The like results for `O=C(OCCN1CCN(c2ccc([N+](=O)[O-])cc2)CC1)c1cccnc1` [Compound 4k, 2-(4-(4-Nitrophenyl)piperazin-1-yl)ethyl nicotinate] were, in that order, 168 to 170 °C, 82.7 ± 1.16 µM and 54.3 ± 4.58%.
Compound `O=C(OCCN1CCN(c2ccc([N+](=O)[O-])cc2)CC1)c1cccc([N+](=O)[O-])c1` [Compound 4e, 2-(4-(4-Nitrophenyl)piperazin-1-yl)ethyl 3-nitrobenzoate] gave a melting point of 181 to 183 °C. The inhibition at 100 µM at mushroom tyrosinase [1] (100 μM, L-dopa substrate, ± SD) came to 24.9 ± 2.81%. The IC50 on mushroom tyrosinase [1] (setting [4]) was above 200 µM.
In the case of `COc1ccc(/C=C/C(=O)N2CCN(c3ccc(F)c(Cl)c3)CC2)cc1[N+](=O)[O-]` [D], at mushroom tyrosinase [3], the IC50 is 0.51 µM.
Compound `O=C(OCCN1CCN(c2ccc([N+](=O)[O-])cc2)CC1)c1ccc([N+](=O)[O-])cc1Cl` [Compound 4f, 2-(4-(4-Nitrophenyl)piperazin-1-yl)ethyl 2-chloro-4-nitrobenzoate] registered a melting point of 203 to 205 °C. In addition, the inhibition at 100 µM at mushroom tyrosinase [1] (100 μM, L-dopa substrate, ± SD) is 35.1 ± 2.25%. At mushroom tyrosinase [1] (setting [4]), the IC50 was above 200 µM.
Take `O=C(O)/C=C/c1ccc(O)c(O)c1` [caffeic acid]: the Tyrosinase inhibitory potential entry on mushroom tyrosinase [3] was “almost inactive”.
`O=C(OCCN1CCN(c2ccc([N+](=O)[O-])cc2)CC1)c1ccccc1` [Compound 4a, 2-(4-(4-Nitrophenyl)piperazin-1-yl)ethyl benzoate] had a melting point of 176 to 178 °C. This compound also returned an IC50 on mushroom tyrosinase [1] of 174.7 ± 0.68 µM. On mushroom tyrosinase [1] (100 μM, L-dopa substrate, ± SD), the inhibition at 100 µM worked out at 35.8 ± 3.24%.
